Laboratory results as given in patent publication US11083725B2 (priority 2014, dated 2021).

System: NHBE cells
Experiment: Biolog metabolic array: substrate use by NHBE cells with or without CA09 infection
Assay type: cell-based, human
[1] = Control (uninfected) NHBE cells
[2] = Virus (CA09-infected NHBE cells, MOI 1)
[3] = Virus: CA09-infected NHBE cells, MOI 1, Biolog PMM2

SMILES: C[C@@H](O)[C@H](O)[C@H](O)[C@@H](O)C=O [D-Fucose]
- 590 nm absorbance normalized to zero hour (substrate use), 0 hr [1]: 1.00
- 590 nm absorbance normalized to zero hour (substrate use), 1 hr [1]: 1.61
- 590 nm absorbance normalized to zero hour (substrate use), 2 hr [1]: 1.96
- 590 nm absorbance normalized to zero hour (substrate use), 3 hr [1]: 2.02
- 590 nm absorbance normalized to zero hour (substrate use), 4 hr [1]: 2.15
- 590 nm absorbance normalized to zero hour (substrate use), 6 hr [1]: 2.11
- 590 nm absorbance normalized to zero hour (substrate use), 8 hr [1]: 2.49
- 590 nm absorbance normalized to zero hour (substrate use), 9 hr [1]: 2.69
- 590 nm absorbance normalized to zero hour (substrate use), 10 hr [1]: 2.78
- 590 nm absorbance normalized to zero hour (substrate use), 11 hr [1]: 2.97
- Substrate use, 590 nm absorbance normalized to zero hour, 0 hr (Control (uninfected) NHBE cells, Biolog PMM2, 0 hr): 1.00
- Substrate use, 590 nm absorbance normalized to zero hour, 1 hr (Control (uninfected) NHBE cells, Biolog PMM2, 1 hr): 1.61
- Substrate use, 590 nm absorbance normalized to zero hour, 5 hr (Control (uninfected) NHBE cells, Biolog PMM2, 5 hr): 2.65
- Substrate use, 590 nm absorbance normalized to zero hour, 7 hr (Control (uninfected) NHBE cells, Biolog PMM2, 7 hr): 2.19
- 590 nm absorbance normalized to zero hour (substrate use), 0 hr [2]: 1.00
- 590 nm absorbance normalized to zero hour (substrate use), 1 hr [2]: 0.66
- 590 nm absorbance normalized to zero hour (substrate use), 2 hr [2]: 0.33
- 590 nm absorbance normalized to zero hour (substrate use), 3 hr [2]: 0.67
- 590 nm absorbance normalized to zero hour (substrate use), 4 hr [2]: 0.64
- 590 nm absorbance normalized to zero hour (substrate use), 5 hr [2]: 0.62
- 590 nm absorbance normalized to zero hour (substrate use), 6 hr [2]: 0.65
- 590 nm absorbance normalized to zero hour (substrate use), 7 hr [2]: 0.65
- 590 nm absorbance normalized to zero hour (substrate use), 8 hr [2]: 0.60
- 590 nm absorbance normalized to zero hour (substrate use), 9 hr [2]: 0.52
- 590 nm absorbance normalized to zero hour (substrate use), 10 hr [2]: 0.57
- 590 nm absorbance normalized to zero hour (substrate use), 11 hr [2]: 0.61
- 590 nm absorbance normalized to zero hour (substrate use), 0 hr [3]: 1.00
- 590 nm absorbance normalized to zero hour (substrate use), 1 hr [3]: 0.66
- 590 nm absorbance normalized to zero hour (substrate use), 2 hr [3]: 0.33
- 590 nm absorbance normalized to zero hour (substrate use), 3 hr [3]: 0.67
- 590 nm absorbance normalized to zero hour (substrate use), 4 hr [3]: 0.64
- 590 nm absorbance normalized to zero hour (substrate use), 5 hr [3]: 0.62
- 590 nm absorbance normalized to zero hour (substrate use), 6 hr [3]: 0.65
- 590 nm absorbance normalized to zero hour (substrate use), 7 hr [3]: 0.65
- 590 nm absorbance normalized to zero hour (substrate use), 8 hr [3]: 0.60
- 590 nm absorbance normalized to zero hour (substrate use), 9 hr [3]: 0.52
- 590 nm absorbance normalized to zero hour (substrate use), 10 hr [3]: 0.57
- 590 nm absorbance normalized to zero hour (substrate use), 11 hr [3]: 0.61
